Tests used:
[1] = test system: healthy postmenopausal women; assay: Supplementation of healthy postmenopausal women with lycopene: oxidative stress and bone turnover markers; assay type: in vivo, human; conditions: 30 mg/day for 6 months
postmenopausal women = assay: Postmenopausal women with high versus low dietary intake / serum lycopene: oxidative stress and bone markers; assay type: in vivo, human; conditions: women with higher serum lycopene
Description: Work of the inventors of the present invention, both experimental work and work with humans, provides evidence for a positive effect of the potent antioxidant “Lycopene” on bone health.

For CC(C)=CCC/C(C)=C/C=C/C(C)=C/C=C/C(C)=C/C=C/C=C(C)/C=C/C=C(C)/C=C/C=C(\C)CCC=C(C)C [lycopene], the s-BALP ([1]; bone formation marker) was “increases”, the s-OC ([1]; bone formation marker) was “increases” and the s-CTX ([1]; bone resorption marker) was “significant decreases”. For the same compound, the u-NTX ([1]; bone resorption marker) was “significant decreases”, the bone turnover markers ([1]; healthy postmenopausal women) was “significantly improved” and the oxidative stress ([1]; healthy postmenopausal women) was “significantly improved”. For the same compound, the “bone formation markers (s-Osteocalcin and bone-specific ALP)” value (postmenopausal women) was “improve”, the “bone resorption markers (u-NTX, s-CTX)” value (postmenopausal women) was “improve” and the “oxidative stress (lipid and protein oxidation, catalase and superoxide dismutase activities)” value (postmenopausal women) was “reduced oxidative stress”.
